Measured values reported in the supplement of paper PMC11208160.

Experiment: recombinant UMI read abundance after kanamycin selection (control-corrected) (log10(CPM+1)); higher = more efficient recombination; extreme values may be limits of the assay; sequences stand for … in AGTGCAGAGAAAATCGGCCAGTTTTCTCTGCCTGCAGTCCGCATGCCGTGGGACCCCTTGGGTTCTAACCTGTTGCCTAGATTTATGCAGCGGACTGCCTTTCTCCCAAAGTGATAAACCGG…AGGTTGGTTTCACT; site = the 11-nt donor
Procedure: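 Pooled E. coli donor-specificity screen for the IS621 bridge recombinase. Each library member carries a reprogrammed 11-nt donor and a full-length LE bridge RNA expressed in cis from the natural promoter, with a paired donor-binding loop (8-nt LDG + 4-nt RDG) and a target-binding loop fixed to T5. It is co-electroporated with a T5 target plasmid; recombinase is induced with 0.07 mM IPTG and recombinants are selected on kanamycin. UMIs are counted as CPM, averaged over two biological replicates and corrected by the unselected control. Molecule = full bridge RNA written as DNA, built from the T5 scaffold: LDG = donor specificity nt 1-8, RDG = reverse complement of nt 8-11.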
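Also: IS621 bridge recombinase in Escherichia coli cells against a fixed T5 target plasmid.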

Sequence | recombinant UMI read abundance (log10)
GCGGAAACATGGACCGGTTTTCCCGGTAATCCGTATTTGCT (site GCGCAAACTAG) | 1.5
ACATCTACATGGACCGGTTTTCCCGGTAATCCGTATTTGCG (site ACATCTACTCG) | 1.2
CGCCGTACATGGACCGGTTTTCCCGGTAATCCGTATTTGCT (site CGTCGTACTAG) | 0
CGGGAGTCATGGACCGGTTTTCCCGGTAATCCGTATTTGCC (site CGGGAGGCTGG) | 0.103
CGGAATCCATGGACCGGTTTTCCCGGTAATCCGTATTTGTT (site CGTAGTCCTAA) | 0.00941
AAGAACGCATGGACCGGTTTTCCCGGTAATCCGTATTTGGG (site AAGCACGCTCC) | 0.0226
AGCACAGCATGGACCGGTTTTCCCGGTAATCCGTATTTGGG (site AGCCCAGCTCC) | 0.00716
TTAGCGGCATGGACCGGTTTTCCCGGTAATCCGTATTTGTG (site TTAGCCGCTCA) | 0.00441
TCATGCTCATGGACCGGTTTTCCCGGTAATCCGTATTTGCA (site TCATCCTCTTG) | 0
CTCTCTACATGGACCGGTTTTCCCGGTAATCCGTATTTGAG (site CTCTCTACTCT) | 0.0107
CAATGCTCATGGACCGGTTTTCCCGGTAATCCGTATTTGAA (site CAATGCTCTTA) | 0.908
CATTATCCATGGACCGGTTTTCCCGGTAATCCGTATTTGCT (site AATTATCCTAG) | 0.352
TCCAATTCATGGACCGGTTTTCCCGGTAATCCGTATTTGCG (site TCCAATTCTCG) | 0
TAGGGGACATGGACCGGTTTTCCCGGTAATCCGTATTTGTT (site TAGGGGACTAA) | 1.75
CGAGGACCATGGACCGGTTTTCCCGGTAATCCGTATTTGGA (site CGAGGACCTAC) | 0
ACATATACATGGACCGGTTTTCCCGGTAATCCGTATTTGTG (site ACATATACTCA) | 1.81
TGCTCCCCATGGACCGGTTTTCCCGGTAATCCGTATTTGTA (site TGGTCCCCTTA) | 0.00608
CGGAATCCATGGACCGGTTTTCCCGGTAATCCGTATTTGTT (site CGGAATACTGA) | 0
CGGGAGTCATGGACCGGTTTTCCCGGTAATCCGTATTTGCC (site CGGGTGTCTGG) | 0
GGCCACCCATGGACCGGTTTTCCCGGTAATCCGTATTTGTG (site GGCCACCCTAA) | 0.00884
CGATCATCATGGACCGGTTTTCCCGGTAATCCGTATTTGCT (site CGATCTGCTAG) | 0
ACATTATCATGGACCGGTTTTCCCGGTAATCCGTATTTGCC (site ACATTATCTGG) | 2.56
AACCGTCCATGGACCGGTTTTCCCGGTAATCCGTATTTGAG (site AACCGTCCTGT) | 0
GTAACGCCATGGACCGGTTTTCCCGGTAATCCGTATTTGTC (site GTAACGCCTGA) | 0

Sequence | recombinant UMI read abundance (log10)
ACGACTACATGGACCGGTTTTCCCGGTAATCCGTATTTGAC (site ACGACTACTGT) | 2.45
CCTAATACATGGACCGGTTTTCCCGGTAATCCGTATTTGTC (site CCTAATACTGG) | 0
CGTGGAACATGGACCGGTTTTCCCGGTAATCCGTATTTGTC (site CGTGGAACTTA) | 0.519
CACTCCTCATGGACCGGTTTTCCCGGTAATCCGTATTTGCC (site CACCCCTCTGG) | 2.8
AGCCCCTCATGGACCGGTTTTCCCGGTAATCCGTATTTGCA (site AGCCCCTCTTG) | 2.75
ACAAAGGCATGGACCGGTTTTCCCGGTAATCCGTATTTGCT (site AGAAAGGCTAG) | 0
CTCCACACATGGACCGGTTTTCCCGGTAATCCGTATTTGCT (site CTCCACACTAG) | 2.08
CGATCATCATGGACCGGTTTTCCCGGTAATCCGTATTTGCT (site CAAACATCTAG) | 1.6
TCTAGAACATGGACCGGTTTTCCCGGTAATCCGTATTTGAG (site GCTAGAACTCT) | 0
GCGAAGCCATGGACCGGTTTTCCCGGTAATCCGTATTTGGA (site GCGAAGCCTGC) | 0
GCAATAACATGGACCGGTTTTCCCGGTAATCCGTATTTGGT (site GCAATAACTAC) | 2.38
GCCCTTTCATGGACCGGTTTTCCCGGTAATCCGTATTTGCT (site GCCCTTTCTAG) | 1.67
CCATTCTCATGGACCGGTTTTCCCGGTAATCCGTATTTGGG (site CCCTTCTCTCC) | 0.00367
CGGAATCCATGGACCGGTTTTCCCGGTAATCCGTATTTGTT (site CAGAATCCTGA) | 0
CTGCTAACATGGACCGGTTTTCCCGGTAATCCGTATTTGGA (site CTTCTAACTTC) | 0.563
ACGCACGCATGGACCGGTTTTCCCGGTAATCCGTATTTGCA (site ACGCACGCTTG) | 2.71
GGCACGTCATGGACCGGTTTTCCCGGTAATCCGTATTTGTT (site GGAACGTCTAA) | 0.027
CAAGGGCCATGGACCGGTTTTCCCGGTAATCCGTATTTGTG (site CAAGAGCCTCA) | 0.431
CGGACTCCATGGACCGGTTTTCCCGGTAATCCGTATTTGTT (site CGGATTCCTAA) | 0.00394
CACTCCTCATGGACCGGTTTTCCCGGTAATCCGTATTTGCC (site CACTACTCTGG) | 1.17
CTAGTGTCATGGACCGGTTTTCCCGGTAATCCGTATTTGAT (site CTAGTATCTGT) | 1.55
AATTTGTCATGGACCGGTTTTCCCGGTAATCCGTATTTGAC (site AATGTGTCTGT) | 0
CACTCCTCATGGACCGGTTTTCCCGGTAATCCGTATTTGGC (site CACTCCTCTGC) | 2.75
CACCGTCCATGGACCGGTTTTCCCGGTAATCCGTATTTGAT (site AACCGTCCTAT) | 0.117

Sequence | recombinant UMI read abundance (log10)
ACACGCACATGGACCGGTTTTCCCGGTAATCCGTATTTGTC (site ACACGCACTGA) | 2.85
CGCAACCCATGGACCGGTTTTCCCGGTAATCCGTATTTGTT (site CGCAACCCTAA) | 0.717
TGCTTGACATGGACCGGTTTTCCCGGTAATCCGTATTTGGA (site TGCTTGACTTC) | 0.355
CACTCCTCATGGACCGGTTTTCCCGGTAATCCGTATTTGCA (site CACTCCTCTGG) | 1.21
TAATGAGCATGGACCGGTTTTCCCGGTAATCCGTATTTGGG (site TAAGGAGCTCC) | 0.0167
AGTGCCGCATGGACCGGTTTTCCCGGTAATCCGTATTTGGG (site AGTGCCGCTCC) | 0.025
CGTCTGGCATGGACCGGTTTTCCCGGTAATCCGTATTTGCT (site CGTATGGCTAG) | 0
AATGCAACATGGACCGGTTTTCCCGGTAATCCGTATTTGCT (site AATGGAACTAG) | 0
ACTTCGTCATGGACCGGTTTTCCCGGTAATCCGTATTTGTG (site ACTTCGTCTCA) | 0.306
GAGGATGCATGGACCGGTTTTCCCGGTAATCCGTATTTGAA (site GAGGATGCTTT) | 2.56
TAATGAGCATGGACCGGTTTTCCCGGTAATCCGTATTTGGG (site TAATGCGCTCC) | 0.00982
ATAGTATCATGGACCGGTTTTCCCGGTAATCCGTATTTGCA (site ACAGTATCTTG) | 2.34
CGATCATCATGGACCGGTTTTCCCGGTAATCCGTATTTGCT (site CCGTCATCTAG) | 0.747
CAGGACTCATGGACCGGTTTTCCCGGTAATCCGTATTTGTT (site CAGGACTCTAA) | 2.96
CAAGCGCCATGGACCGGTTTTCCCGGTAATCCGTATTTGTG (site CAATCGCCTCA) | 0.0117
TTCACTTCATGGACCGGTTTTCCCGGTAATCCGTATTTGTG (site TTCACTTCTCA) | 0.00654
CGATCATCATGGACCGGTTTTCCCGGTAATCCGTATTTGCT (site CGATCCTCTAG) | 0
CTTCTCTCATGGACCGGTTTTCCCGGTAATCCGTATTTGTA (site CTTCTATCTTA) | 0.394
AGCCTTTCATGGACCGGTTTTCCCGGTAATCCGTATTTGTC (site AGCCTTTCTGG) | 0
CGTGCCTCATGGACCGGTTTTCCCGGTAATCCGTATTTGTC (site CGTGCCTCTGA) | 2.03
CGGGCACCATGGACCGGTTTTCCCGGTAATCCGTATTTGAT (site CGGGGACCTAT) | 0.0117
GACAAACCATGGACCGGTTTTCCCGGTAATCCGTATTTGGT (site GACAAACCTAC) | 0
TCGCAGACATGGACCGGTTTTCCCGGTAATCCGTATTTGCG (site TCGCAGACTCG) | 0.0105
TGCTTGACATGGACCGGTTTTCCCGGTAATCCGTATTTGCT (site TGCTTGACTAG) | 0.922
